Earlier results in patent US6509447B1, “G protein chimeras and methods of screening compounds” (Glaxo Welcome Inc., priority 1997, dated 2003).

Molecular target: T1, Ste2p (Saccharomyces cerevisiae, UniProt D6VTK4)
T1 sequence (D6VTK4 1-431): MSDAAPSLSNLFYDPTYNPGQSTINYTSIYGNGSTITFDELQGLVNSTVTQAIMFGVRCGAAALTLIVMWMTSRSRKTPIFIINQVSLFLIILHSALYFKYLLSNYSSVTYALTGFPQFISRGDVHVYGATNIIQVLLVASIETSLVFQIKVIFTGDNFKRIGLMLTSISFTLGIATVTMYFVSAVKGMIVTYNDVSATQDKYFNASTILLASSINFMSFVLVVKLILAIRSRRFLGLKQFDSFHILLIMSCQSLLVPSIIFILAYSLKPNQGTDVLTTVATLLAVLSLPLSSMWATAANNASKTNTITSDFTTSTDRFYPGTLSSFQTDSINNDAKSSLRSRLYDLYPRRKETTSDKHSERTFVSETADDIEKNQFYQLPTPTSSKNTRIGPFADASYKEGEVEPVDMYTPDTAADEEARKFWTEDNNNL
Conditions: literature reference (3); read-out: reported affinity of Ste2p for α-factor peptide (Kd); cited from earlier work

For α-factor, the Kd is listed as 17 nM.
